Laboratory results as given in PMC9739180, “Discovery of a Flavonoid FM04 as a Potent Inhibitor to Reverse P-Glycoprotein-Mediated Drug Resistance in Xenografts and Improve Oral Bioavailability of Paclitaxel” (International Journal of Molecular Sciences, 2022).

Legend:
P-gp [1] = molecular target: T1, P-gp (Homo sapiens, UniProt P08183); assay: Transepithelial transport of PTX, Caco-2 transwell assay; assay type: in vitro ADME
Protocol: Figure 7 Mechanistic study of FM04 to increase the oral PTX absorption. (A) transepithelial permeability of PTX in Caco-2 transwell assay. When confluent monolayer of Caco2 cells was formed on the transwell, the permeability of PTX (10 μM) was studied with or without FM04 (10 μM). For apical to basolateral transport (A to B), compound was added at the apical side (donor) and samples of the medium collected at the basal side (receiver) at 0, 20, 40, 60, 80, 100 and 120 min and vice versa for basal to apical transport (B to A). The PTX level was determined using UPLC-MS/MS. The relative % of PTX was presented as mean ± standard error of mean. N = 2–3 independent experiments. Impact of FM04 on PTX metabolism. […] After incubation, the levels of PTX, metabolites 6α-hydroxpaclitaxel (6α-OHP) and p3′-hydroxpaclitaxel (p3-OHP) were determined by HPLC-MS/MS. (B) changes in PTX. […]
Caco-2 cells in between passage number 21 and 30 were used for the experiment, 1 × 10^5 cells/cm^2 Caco-2 cells were seeded in Costar 6-well transwell plate (Corning Inc). […] The integrity of cell monolayers was evaluated on the day of experiments by measuring the trans-epithelial electrical resistance (TEER) of the cell monolayers. […] Drug transport was evaluated at 37 °C by incubating the cells in media containing PTX (10 μM) with or without FM04 (10 μM) at the donor chamber and samples collected at the receiver chamber. […]

P-gp [2] = molecular target: T1, P-gp; assay: Intracellular DOX accumulation assay in LCC6MDR cells
BCRP = molecular target: T2, BCRP (Homo sapiens, UniProt Q9UNQ0); assay: BCRP-modulating activity in HEK293/R2 cells (MTS); assay type: cell-based; conditions: 1 μM, HEK293/R2
T2 construct: expressed in transfected cells; host or cells: HEK293/R2
T2 sequence (Q9UNQ0 1-655): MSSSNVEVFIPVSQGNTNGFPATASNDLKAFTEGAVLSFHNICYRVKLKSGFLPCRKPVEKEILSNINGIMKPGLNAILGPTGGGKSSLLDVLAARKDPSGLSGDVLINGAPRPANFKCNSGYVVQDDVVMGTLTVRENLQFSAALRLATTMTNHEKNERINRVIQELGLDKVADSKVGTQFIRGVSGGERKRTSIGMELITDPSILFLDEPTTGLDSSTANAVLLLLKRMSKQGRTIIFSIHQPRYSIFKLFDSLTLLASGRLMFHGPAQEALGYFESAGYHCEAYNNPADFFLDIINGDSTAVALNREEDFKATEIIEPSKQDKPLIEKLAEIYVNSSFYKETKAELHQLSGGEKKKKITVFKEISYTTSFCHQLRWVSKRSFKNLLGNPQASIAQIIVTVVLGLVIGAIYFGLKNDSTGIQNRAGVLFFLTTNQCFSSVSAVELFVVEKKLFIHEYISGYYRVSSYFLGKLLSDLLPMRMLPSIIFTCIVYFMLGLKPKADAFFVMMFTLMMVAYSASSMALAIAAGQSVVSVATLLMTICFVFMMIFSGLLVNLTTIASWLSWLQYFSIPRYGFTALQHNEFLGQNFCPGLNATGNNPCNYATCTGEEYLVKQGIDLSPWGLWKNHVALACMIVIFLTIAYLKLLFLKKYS
Protocol: The final volume in each well of the 96-well plate was 200 μL. The plate was then incubated for 5 days at 37 °C. The cell viability was determined using an MTS assay as reported previously.

[3] = Cytotoxicity assay (MTS, 3 days), LCC6; assay type: cell-based; conditions: human, LCC6 cells
Protocol: (§1) To each well of 96-well plate, 10,000 cells of LCC6, LCC6MDR or L929 were incubated with different concentrations of FM04 (0, 0.4, 1.2, 3.7, 11, 33 and 100 μM). The final volume in each well of 96-well plate was 100 μL and the plate was incubated for 3 days at 37 °C. The cell viability was determined using MTS assay as reported previously.

[4] = Cytotoxicity assay (MTS, 3 days), L929; assay type: cell-based; conditions: L929 fibroblast cells; mouse fibroblast cell line
Protocol: as §1

P-gp [5] = molecular target: T1, P-gp; assay: P-gp-ATPase activity (P-gp-Glo assay); assay type: biochemical; set-up: purchased Promega
Protocol: N = 2–3 independent experiments. […] After incubation, the cells were lysed and spun down. […] N = 2–6 independent experiments. […] A 1% DMSO was a solvent control. […] N = 2–3 independent experiments.
P-gp-ATPase activity was measured by a P-gp-Glo assay system (Promega) with a human P-gp membrane, as reported previously. […] The reaction was initiated by the addition of MgATP and incubated at 37 °C for 1 h. After adding the ATP detection reagent, the sample was incubated at room temperature for 20 min before measuring the remaining ATP signal of luminescence by a Clariostar microplate reader (BMG Labtech). Vanadate-inhibitable P-gp ATPase activity was determined by calculating the luminescence signal in the samples with or without sodium vanadate.

CYP3A4 = molecular target: T3, CYP3A4 (Homo sapiens, UniProt P08684); assay: PTX metabolism in human liver microsomes: p3-OHP formation; assay type: in vitro ADME; conditions: HLM
T3 construct: tissue Research Institute for Liver Diseases (Shanghai); host or cells: 50-donor pooled human liver microsomes
T3 sequence (P08684 whole entry): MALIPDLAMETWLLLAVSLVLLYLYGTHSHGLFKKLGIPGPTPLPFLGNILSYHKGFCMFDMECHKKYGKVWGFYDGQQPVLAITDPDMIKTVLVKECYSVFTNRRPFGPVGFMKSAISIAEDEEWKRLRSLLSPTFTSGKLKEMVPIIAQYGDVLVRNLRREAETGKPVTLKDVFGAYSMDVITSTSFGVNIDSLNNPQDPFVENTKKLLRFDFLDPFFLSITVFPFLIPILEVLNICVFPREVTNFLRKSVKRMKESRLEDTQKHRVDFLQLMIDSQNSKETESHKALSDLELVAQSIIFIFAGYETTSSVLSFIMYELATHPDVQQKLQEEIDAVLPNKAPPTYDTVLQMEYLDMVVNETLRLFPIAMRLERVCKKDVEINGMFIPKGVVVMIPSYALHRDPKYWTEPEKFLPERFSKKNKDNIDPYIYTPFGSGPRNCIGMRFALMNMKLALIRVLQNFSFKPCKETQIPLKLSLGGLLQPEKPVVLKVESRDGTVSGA
Protocol: N = 2–3 independent experiments. […] N = 2–3 independent experiments.
Source parameters were as follows, gas temp (350 °C), gas flow (8 L/min), nebulizer (35 psi) and capillary (4000 V). […] Milli-Q with 0.1% formic acid was used as the aqueous phase.

T1 sequence (P08183 whole entry): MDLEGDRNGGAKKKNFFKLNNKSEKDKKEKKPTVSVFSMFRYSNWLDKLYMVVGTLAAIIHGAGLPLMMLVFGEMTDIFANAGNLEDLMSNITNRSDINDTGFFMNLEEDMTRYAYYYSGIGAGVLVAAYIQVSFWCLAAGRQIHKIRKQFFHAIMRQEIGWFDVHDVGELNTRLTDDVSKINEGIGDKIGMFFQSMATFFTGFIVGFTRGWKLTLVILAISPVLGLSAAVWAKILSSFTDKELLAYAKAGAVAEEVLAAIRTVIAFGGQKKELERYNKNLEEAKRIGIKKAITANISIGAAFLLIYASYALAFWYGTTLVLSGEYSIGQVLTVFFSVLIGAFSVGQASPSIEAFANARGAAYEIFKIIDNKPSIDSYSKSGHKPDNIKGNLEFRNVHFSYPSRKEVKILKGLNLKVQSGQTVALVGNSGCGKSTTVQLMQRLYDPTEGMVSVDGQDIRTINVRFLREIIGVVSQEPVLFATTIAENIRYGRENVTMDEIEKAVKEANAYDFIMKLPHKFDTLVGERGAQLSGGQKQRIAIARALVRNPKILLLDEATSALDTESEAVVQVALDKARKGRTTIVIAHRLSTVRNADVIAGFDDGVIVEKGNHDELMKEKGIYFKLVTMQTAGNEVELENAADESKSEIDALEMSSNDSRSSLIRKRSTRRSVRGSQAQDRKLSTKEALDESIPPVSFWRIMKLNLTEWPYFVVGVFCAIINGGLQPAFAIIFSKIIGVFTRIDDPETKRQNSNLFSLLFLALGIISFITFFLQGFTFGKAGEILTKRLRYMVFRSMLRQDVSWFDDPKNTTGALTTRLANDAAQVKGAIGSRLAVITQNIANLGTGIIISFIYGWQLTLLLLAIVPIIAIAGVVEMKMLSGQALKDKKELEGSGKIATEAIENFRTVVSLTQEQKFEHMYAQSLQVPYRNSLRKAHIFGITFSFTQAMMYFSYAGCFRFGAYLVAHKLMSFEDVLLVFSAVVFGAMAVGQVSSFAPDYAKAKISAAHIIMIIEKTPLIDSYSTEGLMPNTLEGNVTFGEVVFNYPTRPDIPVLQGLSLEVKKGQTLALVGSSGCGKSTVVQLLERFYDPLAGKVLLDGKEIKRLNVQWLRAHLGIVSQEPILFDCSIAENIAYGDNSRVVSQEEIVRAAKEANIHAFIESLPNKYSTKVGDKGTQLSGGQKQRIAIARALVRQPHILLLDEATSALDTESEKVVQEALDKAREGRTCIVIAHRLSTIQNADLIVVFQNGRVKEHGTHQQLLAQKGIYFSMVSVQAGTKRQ

Row | Structure (SMILES) | direction of transepithelial transport of PTX (P-gp [1]; PTX 10 µM without FM04) | EC50 (P-gp [2]) [µM] | reversal of BCRP-mediated topotecan resistance (BCRP) | IC50 at 3 days [3] [µM] | IC50 at 3 days [4] [µM] | P-gp ATPase activity, fold of basal (P-gp [5]; 3 μM) [fold] | P-gp ATPase activity, fold of basal (P-gp [5]; 100 μM) [fold] | decrease of PTX transport from B to A (P-gp [1]; PTX 10 μM + FM04 10 μM) [%] | reduction in p3-OHP (CYP3A4; FM04 10 μM) [%] | reduction in p3-OHP (CYP3A4; FM04 20 μM) [%]
1 | CC(=O)O[C@H]1C(=O)[C@@]2(C)[C@H]([C@H](OC(=O)c3ccccc3)[C@]3(O)C[C@H](OC(=O)[C@H](O)[C@@H](NC(=O)c4ccccc4)c4ccccc4)C(C)=C1C3(C)C)[C@]1(OC(C)=O)CO[C@@H]1C[C@@H]2O [PTX, paclitaxel] | only pumped from B to A, but not A to B | – | – | – | – | – | – | – | – | –
2 | O=c1cc(-c2ccc(OCCOCCNCc3ccccc3)cc2)oc2ccccc12 [FM04, 2-(4-(2-(2-(benzylamino)ethoxy)ethoxy)phenyl)-4H-chromen-4-one] | – | 0.064 | did not reverse BCRP-mediated topotecan resistance | 10.3 ± 0.2 | 33 | 1.5 | 3.3 | 17 | 42 | 51
